Values of other authors in patent US5637565A, “Purified form of streptogramins, its preparation and pharmaceutical compositions containing it” (Rhone-Poulenc Rorer S.A., priority 1993, dated 1997).

Conditions: purified crystalline product

- bioavailability: too low
SMILES: CC1=C\[C@@H](O)CC(=O)Cc2nc(co2)C(=O)N2CCC=C2C(=O)O[C@H](C(C)C)[C@H](C)/C=C/C(=O)NC\C=C\1 [pristinamycin IIA]
